Measurements from patent US8834841B2, “Imaging agents” (priority 2005, dated 2014).

Assays:
[1] = system: MB468 Breast Tumor Cells Implanted SC in SCID Mice; assay: tissue distribution, MB468 tumor-bearing SCID mice; assay type: in vivo
Experimental: For the in vitro amino acid uptake studies, all cells can be grown to monolayer confluency in T-175 culture flasks [Corning, Corning, N.Y.] (approx. 1×10^8 cells/flask) in Dulbecco's Modified Eagle's Medium (DMEM) [Sigma, St. Louis, Mo.] in a humidified incubator (37° C., 5% CO2/95% air). Media are supplemented with 10% fetal calf serum [Hyclone, Logan, Utah], and antibiotics (10,000 U/ml penicillin and 10 mg/ml streptomycin) (Sigma, St. Louis, Mo.). For tissue culture passage, monolayer cells are detached by gentle trypsinization, resuspended in complete media, and split 1:10 into new T-flasks. Cultures are passaged weekly, and fed fresh media every 2 to 3 days. To initiate tumor growth in SCID mice, 1×10^6 cells are injected s.c. bilaterally into the flanks (inguinal region) of the recipient animals using a 1 ml syringe with a 27 gauge needle. Ex vivo experiments can be performed with animals containing tumors weighing between 500 mg and 1 g, as estimated by caliper measurement (tumor weight=(π/6)*abc, where a, b and c are the tumor length, width and height, respectively). The compounds of the invention are further evaluated for their tumor specificity and selectivity in tumor-bearing animal models. One can evaluate and compare the transport, accumulation and tissue distribution of each compound in these in vivo animal studies. Tissue distribution of the compounds is measured in SCID mice (average weight, 20-25 g) bearing human tumors as follows. The candidate radioligands (20 uCi in 0.4 ml 0.9% NaCl) are injected into the tail vein of tumor-bearing mice. […] Tissues (blood, heart, liver, lungs, kidneys, bone, thyroid, muscle, brain and tumor) are excised, rinsed in saline, and blotted dry. The tissues are weighed, placed into 12×75 mm glass vials, the radioactivity determined with a gamma counter, and the percent dose/gram calculated. Total activities of blood and muscle are calculated by assuming that they account for 7% and 40% of the total body mass, respectively.

[2] = system: A549 (lung), DU145 (prostate), SKOV3 (ovary), and MDA MB468 (breast) tumor-bearing SCID mice; assay: in vivo biodistribution studies, summary over tumor models; details: injected intravenously
Experimental: For the in vitro amino acid uptake studies, all cells can be grown to monolayer confluency in T-175 culture flasks [Corning, Corning, N.Y.] (approx. 1×10^8 cells/flask) in Dulbecco's Modified Eagle's Medium (DMEM) [Sigma, St. Louis, Mo.] in a humidified incubator (37° C., 5% CO2/95% air). Media are supplemented with 10% fetal calf serum [Hyclone, Logan, Utah], and antibiotics (10,000 U/ml penicillin and 10 mg/ml streptomycin) (Sigma, St. Louis, Mo.). For tissue culture passage, monolayer cells are detached by gentle trypsinization, resuspended in complete media, and split 1:10 into new T-flasks. Cultures are passaged weekly, and fed fresh media every 2 to 3 days. To initiate tumor growth in SCID mice, 1×10^6 cells are injected s.c. bilaterally into the flanks (inguinal region) of the recipient animals using a 1 ml syringe with a 27 gauge needle. Ex vivo experiments can be performed with animals containing tumors weighing between 500 mg and 1 g, as estimated by caliper measurement (tumor weight=(π/6)*abc, where a, b and c are the tumor length, width and height, respectively). The compounds of the invention are further evaluated for their tumor specificity and selectivity in tumor-bearing animal models. One can evaluate and compare the transport, accumulation and tissue distribution of each compound in these in vivo animal studies. Tissue distribution of the compounds is measured in SCID mice (average weight, 20-25 g) bearing human tumors as follows. The candidate radioligands (20 uCi in 0.4 ml 0.9% NaCl) are injected into the tail vein of tumor-bearing mice. The animals are sacrificed (cervical dislocation) at 5, 30, 60 and 120 minutes post-injection. Tissues (blood, heart, liver, lungs, kidneys, bone, thyroid, muscle, brain and tumor) are excised, rinsed in saline, and blotted dry. The tissues are weighed, placed into 12×75 mm glass vials, the radioactivity determined with a gamma counter, and the percent dose/gram calculated. Total activities of blood and muscle are calculated by assuming that they account for 7% and 40% of the total body mass, respectively. As exemplified above, the amino acid compounds of the invention have advantageous physiological characteristics (i.e., tumor binding specificity and selectivity, in vivo stability etc).

[3] = 120 min p.i., range over tumor models

Structure (SMILES): NC1(C(=O)O)CCC1[18F] [Anti-R,S 2-[^18F]FACBC, (R,S) anti-1-amino-2-[^18F]fluorocyclobutyl-1-carboxylic acid]
- % Dose/g blood ([1]; 15 Minutes): 3.26 % Dose/g
- % Dose/g bone ([1]; 15 Minutes): 1.46 % Dose/g
- % Dose/g brain ([1]; 15 Minutes): 0.23 % Dose/g
- % Dose/g heart ([1]; 15 Minutes): 2.21 % Dose/g
- % Dose/g kidney ([1]; 15 Minutes): 8.62 % Dose/g
- % Dose/g liver ([1]; 15 Minutes): 2.51 % Dose/g
- % Dose/g lung ([1]; 15 Minutes): 4.02 % Dose/g
- % Dose/g muscle ([1]; 15 Minutes): 1.29 % Dose/g
- % Dose/g pancreas ([1]; 15 Minutes): 36.85 % Dose/g
- % Dose/g spleen ([1]; 15 Minutes): 4.47 % Dose/g
- % Dose/g tumor ([1]; 15 Minutes): 2.71 % Dose/g
- % Dose/g blood ([1]; 30 Minutes): 2.39 % Dose/g
- % Dose/g bone ([1]; 30 Minutes): 1.31 % Dose/g
- % Dose/g brain ([1]; 30 Minutes): 0.20 % Dose/g
- % Dose/g heart ([1]; 30 Minutes): 1.89 % Dose/g
- % Dose/g kidney ([1]; 30 Minutes): 6.49 % Dose/g
- % Dose/g liver ([1]; 30 Minutes): 2.49 % Dose/g
- % Dose/g lung ([1]; 30 Minutes): 2.98 % Dose/g
- % Dose/g muscle ([1]; 30 Minutes): 1.12 % Dose/g
- % Dose/g pancreas ([1]; 30 Minutes): 35.25 % Dose/g
- % Dose/g spleen ([1]; 30 Minutes): 4.11 % Dose/g
- % Dose/g tumor ([1]; 30 Minutes): 2.83 % Dose/g
- % Dose/g blood ([1]; 60 Minutes): 1.00 % Dose/g
- % Dose/g bone ([1]; 60 Minutes): 0.92 % Dose/g
- % Dose/g brain ([1]; 60 Minutes): 0.15 % Dose/g
- % Dose/g heart ([1]; 60 Minutes): 1.27 % Dose/g
- % Dose/g kidney ([1]; 60 Minutes): 2.41 % Dose/g
- % Dose/g liver ([1]; 60 Minutes): 1.29 % Dose/g
- % Dose/g lung ([1]; 60 Minutes): 1.37 % Dose/g
- % Dose/g muscle ([1]; 60 Minutes): 1.07 % Dose/g
- % Dose/g pancreas ([1]; 60 Minutes): 19.20 % Dose/g
- % Dose/g spleen ([1]; 60 Minutes): 3.05 % Dose/g
- % Dose/g tumor ([1]; 60 Minutes): 2.19 % Dose/g
- % Dose/g blood ([1]; 120 Minutes): 0.35 % Dose/g
- % Dose/g bone ([1]; 120 Minutes): 0.71 % Dose/g
- % Dose/g brain ([1]; 120 Minutes): 0.13 % Dose/g
- % Dose/g heart ([1]; 120 Minutes): 0.69 % Dose/g
- % Dose/g kidney ([1]; 120 Minutes): 0.89 % Dose/g
- % Dose/g liver ([1]; 120 Minutes): 0.56 % Dose/g
- % Dose/g lung ([1]; 120 Minutes): 0.51 % Dose/g
- % Dose/g muscle ([1]; 120 Minutes): 0.66 % Dose/g
- % Dose/g pancreas ([1]; 120 Minutes): 7.96 % Dose/g
- % Dose/g spleen ([1]; 120 Minutes): 1.01 % Dose/g
- % Dose/g tumor ([1]; 120 Minutes): 1.44 % Dose/g
- tumor uptake [2, 3]: 1.4-3.4 % dose/g
- tumor-to brain ratio [2, 3]: 15-30
- tumor-to kidney ratio [2, 3]: 1.5-2.7
- tumor-to liver ratio [2, 3]: 2.4-4
- tumor-to muscle ratio [2, 3]: 2-4
- accumulation of radioactivity in tumors [2]: rapid and prolonged accumulation of radioactivity in tumors
